For one series, the target named is CYP1A2 (Homo sapiens (Human), UniProt P05177). Briefly: CYP1A2 inhibition in human liver microsomes. The series is classed as in vitro ADME. The following applies: pooled human liver microsomes, marker substrate Phenacetin. The protocol:
The specific marker metabolites are measured with LC/MS/MS. The remaining enzymatic activities and inhibitory potency IC50 are determined. Microsomes are removed out of the −80° C. freezer to thaw on ice and 20 μL of the substrates solution added to the corresponding wells. […] Then 158 μL of the HLM working solution was added to all wells of the incubation plate. The plate was pre-warmed for about 10 min using a 37° C. water bath. Then 20 μL of the NADPH cofactor solution was added to all incubation wells, mixed and incubated for 10 minutes at 37° C. water bath. The reaction is terminated by adding 400 μL cold stop solution (200 ng/mL Tolbutamide and 200 ng/mL Labetalol in ACN). […] Finally 200 μL of the supernatant was transferred to 100 μL HPLC water, shaken for 10 min and analyzed by LC/MS/MS. […] Equation for three parameters logistic sigmoidal curve: […]

The target in series [1] is human NaV1.5 late sodium current (INaL) (Homo sapiens (Human), UniProt Q14524). Briefly: INaL inhibition at hNaV1.5, PatchXpress electrophysiology. The series is classed as cell-based. The following applies: HEK-293 cells expressing recombinant human NaV1.5, HEK-293 cells expressing hNaV1.5, late current evoked by 300 nM ATX-II, read-out: INaL v1.5 (1 μM, % Inhibition).
Chain of human NaV1.5 late sodium current (INaL) (Q14524 whole entry): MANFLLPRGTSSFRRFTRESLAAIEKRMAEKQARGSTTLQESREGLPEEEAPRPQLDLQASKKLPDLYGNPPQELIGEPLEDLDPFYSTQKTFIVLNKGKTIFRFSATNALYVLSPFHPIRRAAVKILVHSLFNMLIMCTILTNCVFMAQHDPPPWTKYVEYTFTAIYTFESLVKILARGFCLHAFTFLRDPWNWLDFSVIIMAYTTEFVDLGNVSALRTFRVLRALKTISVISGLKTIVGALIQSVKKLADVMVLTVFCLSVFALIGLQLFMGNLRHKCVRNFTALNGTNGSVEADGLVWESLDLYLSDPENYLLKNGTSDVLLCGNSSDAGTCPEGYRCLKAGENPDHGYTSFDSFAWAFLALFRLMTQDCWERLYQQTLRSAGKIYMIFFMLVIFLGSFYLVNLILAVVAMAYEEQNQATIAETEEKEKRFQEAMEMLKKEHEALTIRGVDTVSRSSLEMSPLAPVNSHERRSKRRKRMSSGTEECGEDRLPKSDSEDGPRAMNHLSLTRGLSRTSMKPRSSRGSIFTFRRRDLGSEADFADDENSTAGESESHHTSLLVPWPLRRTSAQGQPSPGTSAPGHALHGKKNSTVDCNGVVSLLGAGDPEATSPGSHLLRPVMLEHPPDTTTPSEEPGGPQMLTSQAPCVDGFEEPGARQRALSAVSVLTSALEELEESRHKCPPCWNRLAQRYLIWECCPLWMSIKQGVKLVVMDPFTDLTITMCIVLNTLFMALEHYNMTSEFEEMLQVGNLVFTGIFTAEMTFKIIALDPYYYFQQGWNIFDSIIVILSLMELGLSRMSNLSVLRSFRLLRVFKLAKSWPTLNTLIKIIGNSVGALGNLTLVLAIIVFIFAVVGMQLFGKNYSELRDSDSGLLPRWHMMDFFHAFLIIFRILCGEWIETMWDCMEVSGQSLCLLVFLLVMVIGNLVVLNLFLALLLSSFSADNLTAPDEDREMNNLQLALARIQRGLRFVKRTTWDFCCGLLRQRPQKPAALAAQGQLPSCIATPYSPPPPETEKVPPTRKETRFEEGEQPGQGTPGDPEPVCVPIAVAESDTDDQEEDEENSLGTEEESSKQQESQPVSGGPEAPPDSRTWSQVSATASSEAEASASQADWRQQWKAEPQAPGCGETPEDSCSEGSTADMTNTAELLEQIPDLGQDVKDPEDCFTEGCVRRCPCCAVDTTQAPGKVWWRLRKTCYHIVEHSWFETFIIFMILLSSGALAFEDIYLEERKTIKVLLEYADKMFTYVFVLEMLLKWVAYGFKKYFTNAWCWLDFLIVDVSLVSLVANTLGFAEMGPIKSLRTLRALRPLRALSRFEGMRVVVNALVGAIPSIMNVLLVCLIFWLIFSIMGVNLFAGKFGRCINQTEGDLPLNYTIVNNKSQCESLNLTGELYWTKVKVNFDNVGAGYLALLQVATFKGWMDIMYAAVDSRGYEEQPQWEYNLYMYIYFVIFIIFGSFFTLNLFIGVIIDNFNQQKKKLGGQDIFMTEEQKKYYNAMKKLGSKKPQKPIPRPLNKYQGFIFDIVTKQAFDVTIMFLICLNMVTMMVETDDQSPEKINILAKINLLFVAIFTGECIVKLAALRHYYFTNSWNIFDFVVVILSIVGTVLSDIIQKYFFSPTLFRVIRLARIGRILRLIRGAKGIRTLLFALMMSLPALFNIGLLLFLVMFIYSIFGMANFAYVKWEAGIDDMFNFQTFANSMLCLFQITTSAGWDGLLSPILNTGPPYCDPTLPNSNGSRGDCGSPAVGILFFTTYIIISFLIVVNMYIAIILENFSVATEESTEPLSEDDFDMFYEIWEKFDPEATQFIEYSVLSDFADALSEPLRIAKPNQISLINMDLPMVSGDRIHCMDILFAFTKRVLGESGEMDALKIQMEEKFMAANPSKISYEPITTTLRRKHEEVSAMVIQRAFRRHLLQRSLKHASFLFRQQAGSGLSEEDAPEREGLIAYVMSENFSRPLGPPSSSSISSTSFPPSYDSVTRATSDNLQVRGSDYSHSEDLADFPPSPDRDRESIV
For another series, the target named is human NaV1.6 (hNaV1.6) (Homo sapiens (Human), UniProt Q9UQD0). Put plainly: INaL inhibition at hNaV1.6, PatchXpress electrophysiology. The series is classed as cell-based. In outline: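 Recombinant hNaV1.6 in HEK-293 cells recorded by automated patch clamp, with late current evoked by 300 nM ATX-II. INaL taken as mean current over the final 20 ms of the test pulse. Steady-state inhibition expressed as […].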
Chain of human NaV1.6 (hNaV1.6) (Q9UQD0 whole entry): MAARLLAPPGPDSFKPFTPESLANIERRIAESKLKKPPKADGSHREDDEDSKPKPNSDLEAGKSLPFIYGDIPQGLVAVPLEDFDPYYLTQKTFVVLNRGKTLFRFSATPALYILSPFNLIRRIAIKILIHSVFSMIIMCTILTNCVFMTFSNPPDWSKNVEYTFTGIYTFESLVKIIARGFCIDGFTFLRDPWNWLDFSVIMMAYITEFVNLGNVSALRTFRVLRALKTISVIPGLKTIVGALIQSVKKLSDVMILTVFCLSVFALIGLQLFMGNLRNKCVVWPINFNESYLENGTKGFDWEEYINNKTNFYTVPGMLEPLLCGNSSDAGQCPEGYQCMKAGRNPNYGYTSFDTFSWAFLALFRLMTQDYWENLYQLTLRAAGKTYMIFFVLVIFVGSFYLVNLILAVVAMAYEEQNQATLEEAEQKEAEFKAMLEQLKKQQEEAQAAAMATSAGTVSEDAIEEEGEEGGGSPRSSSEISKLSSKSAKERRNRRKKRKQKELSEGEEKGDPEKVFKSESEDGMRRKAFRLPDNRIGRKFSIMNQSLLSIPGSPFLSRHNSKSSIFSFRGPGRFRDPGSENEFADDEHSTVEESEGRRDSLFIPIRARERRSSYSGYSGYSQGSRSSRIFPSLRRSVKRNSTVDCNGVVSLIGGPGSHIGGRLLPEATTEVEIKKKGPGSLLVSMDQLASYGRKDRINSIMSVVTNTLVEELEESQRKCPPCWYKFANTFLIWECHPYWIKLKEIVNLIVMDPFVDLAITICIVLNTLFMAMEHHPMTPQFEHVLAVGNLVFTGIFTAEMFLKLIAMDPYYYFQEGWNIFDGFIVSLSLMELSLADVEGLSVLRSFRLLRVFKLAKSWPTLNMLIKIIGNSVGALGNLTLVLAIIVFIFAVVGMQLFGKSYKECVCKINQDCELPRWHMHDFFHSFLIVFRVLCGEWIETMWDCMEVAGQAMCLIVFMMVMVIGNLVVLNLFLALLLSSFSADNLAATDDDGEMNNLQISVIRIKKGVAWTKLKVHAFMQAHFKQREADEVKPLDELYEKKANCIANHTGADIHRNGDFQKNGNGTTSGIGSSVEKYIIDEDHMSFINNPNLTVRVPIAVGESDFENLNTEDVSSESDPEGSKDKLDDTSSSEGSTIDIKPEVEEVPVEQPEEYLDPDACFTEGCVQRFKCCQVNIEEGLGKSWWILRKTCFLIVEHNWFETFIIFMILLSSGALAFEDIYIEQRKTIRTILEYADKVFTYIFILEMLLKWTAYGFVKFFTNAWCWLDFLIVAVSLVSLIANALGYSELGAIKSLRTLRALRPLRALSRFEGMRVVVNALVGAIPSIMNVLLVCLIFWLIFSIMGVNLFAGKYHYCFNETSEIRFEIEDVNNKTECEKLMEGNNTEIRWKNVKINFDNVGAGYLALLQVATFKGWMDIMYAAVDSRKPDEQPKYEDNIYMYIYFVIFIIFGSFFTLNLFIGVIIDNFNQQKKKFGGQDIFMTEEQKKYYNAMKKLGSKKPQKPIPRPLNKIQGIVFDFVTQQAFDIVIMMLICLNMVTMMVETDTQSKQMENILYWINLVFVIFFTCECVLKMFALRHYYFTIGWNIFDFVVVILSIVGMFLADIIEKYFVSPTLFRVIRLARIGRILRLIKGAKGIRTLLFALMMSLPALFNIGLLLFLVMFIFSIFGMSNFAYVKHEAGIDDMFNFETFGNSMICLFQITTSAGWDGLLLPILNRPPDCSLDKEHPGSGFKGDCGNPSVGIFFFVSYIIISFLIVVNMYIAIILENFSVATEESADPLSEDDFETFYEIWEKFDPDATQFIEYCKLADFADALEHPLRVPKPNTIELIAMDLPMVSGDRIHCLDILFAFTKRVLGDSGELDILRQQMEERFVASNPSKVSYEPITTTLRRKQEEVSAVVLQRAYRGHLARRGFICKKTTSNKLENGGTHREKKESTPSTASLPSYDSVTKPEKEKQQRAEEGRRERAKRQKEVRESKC

Series [2] can be described thus: PK rat clearance experiment. The series is classed as in vivo. Particulars: male Sprague-Dawley rats, single intravenous bolus 0.5 mg/kg, plasma.
Method: The IV dosing solution was prepared freshly on the dosing day. Test article (0.5 mg/kg) was prepared in a vehicle, for example, consisting of 5% DMSO/5% solutol/90% water. The concentrations of test article in all dosing solutions were determined by HPLC/UV. Three male Sprague-Dawley rats were used in this study. The animals were confirmed healthy before being assigned to the study. Each animal was given a unique identification number which was marked on the tail or the ear, and written on the cage card. All animals were fasted overnight before dosing and the food was returned at 4 hours post dosing. Water was provided to all animals ad libitum during the fasting period. Animals were weighed prior to dose administration on the day of dosing for calculating the actual dose volume. The body weights were in the range from 212 g to 223 g for males. All animals received test article by single intravenous bolus administration at 0.5 mg/kg. Approximately 0.2 mL blood was collected at each time point via jugular vein from each study animal. […] All blood samples were transferred into pre-labeled plastic micro centrifuge tubes and mixed with the pre-loaded anti-coagulant K2EDTA (5 μL, 0.5 M). Plasma samples were then prepared by centrifuging the blood samples. All plasma samples were then quickly frozen over dry ice and kept at −60° C. or lower until LC/MS/MS analysis. The concentrations of test article in plasma were determined by using a quantitative bioanalytical LC/MS/MS method. The lower limit of quantitation (LLOQ) for test article in plasma was 1 ng/mL, and the upper limit of quantitation (ULOQ) in plasma was 3000 ng/mL. The plasma concentration of test article in rats was subjected to a non compartmental pharmacokinetic analysis by using the Phoenix WinNonlin software (version 6.3, Pharsight, Mountain View, Calif.). The linear/log trapezoidal rule was applied in obtaining the PK parameters.
Setting [3] is: HEK293, 1 μM, HEK-293 cells expressing hNaV1.6, late current evoked by 300 nM ATX-II, read-out: INaL v1.6 (1 μM, % Inhibition).

The record followed here is patent US11629146B2, “Substituted [1,2,4]triazolo[4,3-a]pyrazines as modulators of sodium channel activity” (Praxis Precision Medicines, Inc., priority 2016, dated 2023).

Like-named read-outs stand apart in the source and are kept apart here. Some results are limits rather than exact numbers.

Chain of CYP1A2 (P05177 whole entry): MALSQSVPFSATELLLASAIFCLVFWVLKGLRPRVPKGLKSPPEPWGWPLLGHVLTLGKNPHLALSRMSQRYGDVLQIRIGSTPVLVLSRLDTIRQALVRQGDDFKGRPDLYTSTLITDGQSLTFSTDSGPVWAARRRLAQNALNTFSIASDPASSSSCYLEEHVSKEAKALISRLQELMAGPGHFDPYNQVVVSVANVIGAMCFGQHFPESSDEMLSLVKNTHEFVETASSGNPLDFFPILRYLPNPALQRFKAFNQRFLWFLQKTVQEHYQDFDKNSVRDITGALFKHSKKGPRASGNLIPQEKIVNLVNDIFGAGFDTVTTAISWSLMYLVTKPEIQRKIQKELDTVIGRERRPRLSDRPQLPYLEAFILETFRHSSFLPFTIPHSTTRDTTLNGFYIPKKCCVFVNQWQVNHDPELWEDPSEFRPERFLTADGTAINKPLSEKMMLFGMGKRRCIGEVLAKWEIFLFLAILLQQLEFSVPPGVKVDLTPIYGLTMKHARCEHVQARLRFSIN

As to `Cc1cc(C(F)(F)F)ccc1-c1ccc2nnc(C(F)(F)F)n2n1` [Compound 3], the half-maximal inhibitory concentration (IC50) on CYP1A2 lay in the range of 1 to 15 µM. In addition, in series [1], the inhibition at 1 µM is over 50%. Besides, the inhibition at 1 µM on human NaV1.6 (hNaV1.6) (setting [3]) was over 70%. In series [2], this compound had a clearance of 6 mL/min/kg and a half-life of 6.7 h.

`FC(F)(F)Cc1nnc2ccc(-c3ccc(OC(F)(F)F)cc3)nn12` [Compound 6]: the IC50 on CYP1A2 was in the range of 1 to 15 µM. Moreover, in series [1], the inhibition at 1 µM was over 50%. In addition, the inhibition at 1 µM on human NaV1.6 (hNaV1.6) (setting [3]) is 30 to 70%. In series [2], this compound had a clearance of 9.2 mL/min/kg and a half-life of 3.2 h.

`N#CC1(c2ccc(-c3ccc4nnc(C(F)(F)F)n4n3)cc2)CC1` [Compound 12] showed a half-maximal inhibitory concentration (IC50) against CYP1A2 of 1 to 15 µM. Also, the inhibition at 1 µM in series [1] was over 50%. For the same compound, the inhibition at 1 µM on human NaV1.6 (hNaV1.6) (setting [3]) was over 70%. In series [2], this compound showed a clearance of 5.1 mL/min/kg and a half-life of 1.4 h.

On to `FC1(F)CC(c2nnc3ccc(-c4ccc(OC(F)(F)F)cc4)nn23)C1` [Compound 14], for which the inhibition at 1 µM in series [1] was over 50%; at human NaV1.6 (hNaV1.6) (setting [3]) it was over 70%. Moreover, the clearance in series [2] came to 32.8 mL/min/kg. In series [2], the half-life was 1.4 h.

Turning to `COc1cc(OC(F)(F)F)ccc1-c1ccc2nnc(C(F)F)n2n1` [Compound 16], in series [1], the inhibition at 1 µM was over 50%. At human NaV1.6 (hNaV1.6) (setting [3]), the inhibition at 1 µM was over 70%. In series [2], the clearance worked out at 52.3 mL/min/kg and the half-life was 0.49 h.

On to `Fc1ccc(OC(F)(F)F)cc1-c1ccc2nnc(C(F)(F)F)n2n1` [Compound 18], for which the figures for the inhibition at 1 µM (in series [1]; at human NaV1.6 (hNaV1.6) (setting [3])) were under 50% and under 30%, respectively.

In the case of `Fc1c(OC(F)(F)F)cccc1-c1ccc2nnc(C(F)(F)F)n2n1` [Compound 19], the figures for the inhibition at 1 µM (in series [1]; at human NaV1.6 (hNaV1.6) (setting [3])) were under 50% and under 30%, respectively.

As to `OCc1nnc2ccc(-c3ccc(OC(F)(F)F)cc3)nn12` [Compound 21], the inhibition at 1 µM in series [1] is under 50%; at human NaV1.6 (hNaV1.6) (HEK293, read-out: INaL v1.6 (1 μM, % Inhibition)) it was under 30%.

Take `COc1cc(C2(C#N)CC2)ccc1-c1ccc2nnc(C(F)(F)F)n2n1` [Compound 22]: in series [1], the inhibition at 1 µM was over 50%. On human NaV1.6 (hNaV1.6) (setting [3]), the inhibition at 1 µM is over 70%. Besides, in series [2], the clearance was 16.6 mL/min/kg and the half-life is 0.6 h.

With `Fc1cc(OC(F)(F)F)ccc1-c1ccc2nnc(C(F)(F)F)n2n1` [Compound 23], the inhibition at 1 µM in series [1] is over 50%. Moreover, on human NaV1.6 (hNaV1.6) (setting [3]), the inhibition at 1 µM is over 70%. In series [2], this compound had a clearance of 1.4 mL/min/kg and a half-life of 21.9 h.

Compound `FC(F)(F)COc1ccc(-c2ccc3nnc(C(F)(F)F)n3n2)cn1` [Compound 30] returned an IC50 against CYP1A2 of 15 to 30 µM. Also, the figures for the inhibition at 1 µM (in series [1]; at human NaV1.6 (hNaV1.6) (setting [3])) were over 50% and over 70%, respectively. The same compound came in with a clearance in series [2] of 29 mL/min/kg. The half-life in series [2] is 0.36 h.

Regarding `Fc1cc(-c2ccc3nnc(C(F)(F)F)n3n2)ccc1OC(F)(F)F` [Compound 31], the inhibition at 1 µM in series [1] is over 50%. Moreover, at human NaV1.6 (hNaV1.6) (setting [3]), the inhibition at 1 µM is over 70%. In series [2], the clearance is 2 mL/min/kg and the half-life is 15.4 h.
